Read-outs that look alike come from different tables or passages of the source. Where a SMILES comes first, the peptide text is derived from it. [ ]: non-standard residue; d: D form. Gly(Nα-oleyl) = CCCCCCCC/C=C\CCCCCCCCNCC(=O)O; Gly(N-dodecyl) = CCCCCCCCCCCCNCC(=O)O; N(CH(CH2OH)2)Gly = O=C(O)CNC(CO)CO; N(octyl)Gly = CCCCCCCCNCC(=O)O; NDecylGly = CCCCCCCCCCNCC(=O)O; NHexGly = CCCCCCNCC(=O)O
What was measured:
[1] = Particle size and polydispersity (PDI) of delivery vehicles by dynamic light scattering; type: physicochemical
Protocol: The resulting delivery vehicle complexes were evaluated by dynamic light scattering (DLS) to determine the volume average particle size/diameter (nm) and the size polydispersity index (PDI) within the delivery vehicle complex.
Particle size. Particle sizes and size distributions were measured using a Wyatt DynaPro® Plate Reader III. In general, formulated samples were diluted to 2 ng/μL in 100 µL PBS. Data is reported as the hydrodynamic diameter (in nm) of the cumulant fit of the correlation function, and the polydispersity of that measurement.
In one particular instance, the size and polydispersity (PDI) of delivery vehicles was measured by dynamic light scattering in PBS using a DynaPro® plate reader III. The zeta potential of delivery vehicles was determined using Nano-ZS™ particle analyzer. Zeta sample was diluted to 30 uM total lipid in a weakly buffered solution of 10 mM HEPES, 10 mM MES, 10 mM ammonium acetate pH 7. Measurements were collected in duplicate for over 30 run with the voltage manually set to […]

[2] = Percent encapsulated mRNA, RiboGreen assay; type: physicochemical
Protocol: Percent encapsulation. The percentage of mRNA encapsulated within the delivery vehicle complexes containing Fluc mRNA was determined using a modified RiboGreen® assay. In general, formulated mRNA samples were diluted to 500 ng/ml in Tris-EDTA buffer with or without Triton-X™. RiboGreen® (Invitrogen) was added at a 200-fold dilution, and the plate was incubated for 5 minutes. Fluorescence was measured at Ex. […]/Em. 520 nm and encapsulated mRNA was calculated by taking the ratio of fluorescence for non-lysed particles versus lysed particles.
The mRNA concentration and the percentage of encapsulated mRNA were determined using a fluorescence-based Quant-iT™ RiboGreen® RNA Reagent Kit using a literature procedure. To determine the mRNA concentration, delivery vehicles were incubated with 2% Triton™ X-100 for 10 min to release entrapped mRNA, followed by addition of RiboGreen® RNA reagent. The fluorescence intensity of mRNA-RiboGreen® reagent complex (excitation at 485 nm and emission at 530 nm) was detected using a microplate reader. The ratio of fluorescence without and with Triton™ X-100 were used to calculate the percentage of encapsulated mRNA.

[3] = RBC hemolysis as metric for fusogenicity; type: cell-based; settings: sheep red blood cells (RBCs), 5% v/v
Protocol: RBC hemolysis was used as a metric for fusogenicity of LNPs at low pH. […] Particles were diluted to […] total lipid in well with 5% RBC solution and incubated at 37° C. for 45 min. Supernatant was collected and absorbance read on a microplate reader at 425 nm. Fusion was normalized to a fully lysed sample with 2% Triton™ and a buffer-only control. % hemolysis=100*[(ABS T-background)−(ABS sample-background)/(ABS T-background)].

[4] = Table 5, delivery vehicle comprising the peptoid, Formulation D22, fLuc mRNA
[5] = Table 6, comparative peptoid delivery vehicle
[6] = Table 6, comparative peptoid delivery vehicle, pH 5, read-out: Hemolysis at pH 5
[7] = Table 6, comparative peptoid delivery vehicle, pH 7, read-out: Hemolysis at pH 7

| Structure (SMILES) | PDI [1, 4] | Particle Size (nm) [1, 4] [nm] | % Encapsulation [2, 4] [%] | hemolysis at 45 min, 150 mM total lipid ([3]; Table 5, delivery vehicle, 37° C. 45 min, pH 5, read-out: Hemolysis at pH 5) [%] | hemolysis at 45 min, 150 mM total lipid ([3]; Table 5, delivery vehicle, 37° C. 45 min, pH 7, read-out: Hemolysis at pH 7) [%] | PDI [1, 5] | Particle Size (nm) [1, 5] [nm] | hemolysis at 45 min, 150 mM total lipid [3, 6] [%] | hemolysis at 45 min, 150 mM total lipid [3, 7] [%] | % Encapsulation [2, 5] [%] |
| --- | --- | --- | --- | --- | --- | --- | --- | --- | --- | --- |
| CCCCCCCC/C=C\CCCCCCCCN(CC(=O)N(CCCCCCCCCCCC)CC(N)=O)C(=O)CN(CCCCCCCCCCCC)C(=O)CNC(CO)CO [Compound 4] (H-[N(CH(CH2OH)2)Gly][Gly(N-dodecyl)][Gly(Nα-oleyl)][Gly(N-dodecyl)]-NH2) | Multimodal | 631.3 | 12.3 |  |  |  |  |  |  |  |
| CCCCCCCCN(CC(N)=O)C(=O)CN(CCCCCCCC)C(=O)CN(CCCCCCCC)C(=O)CN(CC(CC)CCCC)C(=O)CN(CCCCCCCC)C(=O)CN(CCCCCCCC)C(=O)CN(CCCCCCCC)C(=O)CN(CC(CC)CCCC)C(=O)CNC(CO)CO (centres unmarked) [Compound 11] | 0.111 | 106.6 | 66.1 |  |  |  |  |  |  |  |
| CCCCCCCCCCCCN(CC(=O)N(CC(=O)N(CCCCCCCCCCCC)CC(=O)N(CC(N)=O)CC(CC)CCCC)CC(CC)CCCC)C(=O)CNC(CO)CO (centres unmarked) [Compound 23] | Multimodal | 1269.5 | 2.3 |  |  |  |  |  |  |  |
| CCCCCCCCN(CC(=O)N(CCCCCCCC)CC(=O)N(CCCCCC)CC(=O)N(CCCCCCCC)CC(=O)N(CCCCCCCC)CC(=O)N(CCCCCC)CC(N)=O)C(=O)CNC(CO)CO [Compound 25] (H-[N(CH(CH2OH)2)Gly][N(octyl)Gly][N(octyl)Gly][NHexGly][N(octyl)Gly][N(octyl)Gly][NHexGly]-NH2) | Multimodal | 2220.3 | 24.3 | 94.6 | 94.7 |  |  |  |  |  |
| CCCCCCCCCCN(CC(N)=O)C(=O)CN(CCCCCCCC)C(=O)CN(CCCCCCCC)C(=O)CN(CCCCCCCCCC)C(=O)CN(CCCCCCCC)C(=O)CN(CCCCCCCC)C(=O)CNC(CO)CO [Compound 26] (H-[N(CH(CH2OH)2)Gly][N(octyl)Gly][N(octyl)Gly][NDecylGly][N(octyl)Gly][N(octyl)Gly][NDecylGly]-NH2) | Multimodal | 421.9 | 66.1 |  |  |  |  |  |  |  |
| CCCCCCCCCCN(CC(=O)N(CCCCCC)CC(N)=O)C(=O)CN(CCCCCCCC)C(=O)CN(CCCCCC)C(=O)CN(CCCCCCCCCC)C(=O)CN(CCCCCCCC)C(=O)CNC(CO)CO [Compound 32] (H-[N(CH(CH2OH)2)Gly][N(octyl)Gly][NDecylGly][NHexGly][N(octyl)Gly][NDecylGly][NHexGly]-NH2) | Multimodal | 692.4 | 23.3 |  |  |  |  |  |  |  |
| CCCCCCCCCCCCN(CC(N)=O)C(=O)CN(CCCCCCCCCCCC)C(=O)CN(CCCCCCCCCCCC)C(=O)CN(CCCCCCCCCCCC)C(=O)CNCCN [Compound C1, reference compound] |  |  |  |  |  | 0.206 | 61.3 | -15.1 | 39.2 | 86.6 |
| CCCCCCCCCCCCN(CC(N)=O)C(=O)CN(CCCCCCCCCCCC)C(=O)CN(CCCCCCCCCCCC)C(=O)CN(CCCCCCCCCCCC)C(=O)CNCCCO [Compound C2, reference compound] |  |  |  |  |  | 0.179 | 67.0 | 10.6 | 37.2 | 92.2 |
| CCCCCCCCCCCCN(CC(N)=O)C(=O)CN(CCCCCCCCCCCC)C(=O)CN(CCCCCCCCCCCC)C(=O)CN(CCCCCCCCCCCC)C(=O)CNCCO [Compound C3, reference compound] |  |  |  |  |  | 0.196 | 65.3 | 24.4 | 51.1 | 87.5 |
| CCCCCCCCCCCCN(CC(N)=O)C(=O)CN(CCCCCCCCCCCC)C(=O)CN(CCCCCCCCCCCC)C(=O)CN(CCCCCCCCCCCC)C(=O)CN(CCO)CCO [Compound C4, reference compound] |  |  |  |  |  | 0.186 | 67.7 | 4.9 | 12 | 90.5 |
| CCCCCCCCCCCCN(CC(N)=O)C(=O)CN(CCCCCCCCCCCC)C(=O)CN(CCCCCCCCCCCC)C(=O)CN(CCCCCCCCCCCC)C(=O)CNCCCN [Compound C5, reference compound] |  |  |  |  |  | 0.135 | 57.3 | -15.6 | 39.8 | 97.5 |
| CCCCCCCCCCCCN(CC(N)=O)C(=O)CN(CCCCCCCCCCCC)C(=O)CN(CCCCCCCCCCCC)C(=O)CN(CCCCCCCCCCCC)C(=O)CNCCOC [Compound C6, reference compound] |  |  |  |  |  | 0.223 | 67.1 | 4.9 | 22.7 | 92.6 |
| CCCCCCCCCCCCN(CC(N)=O)C(=O)CN(CCCCCCCCCCCC)C(=O)CN(CCCCCCCCCCCC)C(=O)CN(CCCCCCCCCCCC)C(=O)CNCCCOC [Compound C7, reference compound] |  |  |  |  |  | 0.219 | 71.3 | 31.6 | 65.5 | 93.1 |
| CCCCCCCCCCCCN(CC(N)=O)C(=O)CN(CCCCCCCCCCCC)C(=O)CN(CCCCCCCCCCCC)C(=O)CN(CCCCCCCCCCCC)C(=O)CNCCCn1ccnc1 [Compound C8, reference compound] |  |  |  |  |  | 0.192 | 60.2 | 2.3 | 8.1 | 93.5 |
| CCCCCCCCCCCCN(CC(N)=O)C(=O)CN(CCCCCCCCCCCC)C(=O)CN(CCCCCCCCCCCC)C(=O)CN(CCCCCCCCCCCC)C(=O)CNCCCn1ccnc1C [Compound C9, reference compound] |  |  |  |  |  | 0.201 | 63.0 | 0.7 | 2.4 | 98.8 |
| CCCCCCCCCCCCN(CC(N)=O)C(=O)CN(CCCCCCCCCCCC)C(=O)CN(CCCCCCCCCCCC)C(=O)CN(CCCCCCCCCCCC)C(=O)CNCCCN1CCOCC1 [Compound C10, reference compound] |  |  |  |  |  | 0.520 | 84.6 | 0.6 | 1 | 86.6 |
| CCCCCCCCCCCCN(CC(N)=O)C(=O)CN(CCCCCCCCCCCC)C(=O)CN(CCCCCCCCCCCC)C(=O)CN(CCCCCCCCCCCC)C(=O)CNCCCN1CCCCC1 [Compound C11, reference compound] |  |  |  |  |  | 0.179 | 70.2 | 9.6 | 10.2 | 92.4 |
| CCCCCCCCCCCCN(CC(N)=O)C(=O)CN(CCCCCCCCCCCC)C(=O)CN(CCCCCCCCCCCC)C(=O)CN(CCCCCCCCCCCC)C(=O)CN(CC)CCO [Compound C12, reference compound] |  |  |  |  |  | 0.175 | 62.4 | -2.4 | 3.9 | 95.9 |

Reference: US20260083769A1, “2-Aminopropane-1,3-Diol-Capped Cationic Peptoids for Nucleic Acid Delivery” (NUTCRACKER THERAPEUTICS, INC., priority 2022, published 2026)
